The source of these data is patent publication US20040043394A1, “Gene expression element specific for Ah receptor ligands and heterologous gene expression systems dependent on the element” (priority 2002, published 2004).

The structures appear in SMILES notation.

Test [1] deals with AhR. The note with it: cultured mammal cell; cited from earlier work.
For test [2], the system named is LexA operator promoter-LacZ reporter unit in yeast L40 strain expressing XDV/XVD (mouse AhR-ligand binding control region). Put plainly: Yeast reporter assay system for XDV/XVD (LacZ activity). The note with it: yeast introduced with XDV/XVD, FIG. 6. It counts as cell-based. Background: Reporter assays use an easily measured gene product as a stand-in for the process of interest.
Description: Yeasts introduced with various XDV/XVD expression plasmids were pre-cultured overnight in a liquid selective medium containing glucose as a carbon source, cultured for 14 to 16 hours in a liquid selective medium containing an AhR-ligand and galactose(as a carbon source), and the LacZ activity was measured.
By using a reporter gene assay system using a yeast expression system, assessment of performance of XDV/XVD was performed.
An yeast L40 strain having a reporter unit composed of a LexA operator promoter and a β-galactosidase gene (LacZ) in a chromosome [(MATa his3Δ200 trp1-901 leu2-3112 ade2 LYS2:: (41exAop-HIS3)URA3:: (81exAop-lacZ)GAL4) (Invitrogen, Netherland)) was transformed, and assessed by the LacZ activity dependent on the expression of XDV/XVD and ligand treatment as an index. […]
Various AhR-ligands (dioxins) were dissolved in DMSO (a final concentration of DMSO in a medium was adjusted at 0.1%). […] An absorbance at 415 nm of the supernatant was measured. A LacZ unit was calculated by the following calculation equation:
LacZ unit=absorbance at 415 nm/[absorbance at 600 nm of a diluted cultured yeast solution in which 200 μL of cultured yeast solution was diluted up to 1 mL]×reaction time (min)]×1000

Test [3] has as its system AhR-GUS and AhRV-GUS transformed tobacco plant (mouse AhR/AhRV, Arnt, XRE-GUS). Put plainly: GUS activity in transformed tobacco plants (AhR-GUS / AhRV-GUS) treated with AhR-ligand. The format is in vivo, Nicotiana tabacum cv. Sumsun N N. The note with it: for enhancement of the GUS activity in the presence of AhR-ligands: medium with 25 μM 20-MC, 25 μM β-NF, 50 μM indigo, stem and leaf soluble protein, FIG. 10.
Excerpt: A AhR-ligand specific gene expression system for plants was constructed. It was constructed by introducing a AhR, Arnt and XRE to a plant. From a liver cDNA library prepared from C57BL/6 mouse, an AhR cDNA (Schmidt, J. V., et al, 1993) and an Arnt cDNA (Reisz-Porszasz, S., et al, 1994) were cloned. In order to constitutively express both cDNAs in a plant, there were constructed two kinds of plant expression plasmids pSKA2G and pSKAvAtG. The plasmids comprising a tandemly aligned XRE sequence, a transcription factor expression unit (i.e. the first transcription structure) inserted in an expression unit composed of a cauliflower mosaic virus 35S promoter (CaMV35S-P) and a nopaline synthase terminator (Nos-T), and a reporter unit composed of a reporter gene and Nos-T (structures are shown in FIG. 7). The PSKAvAtG contains a chimera AhR (AhRV) in which transcriptional activation domain of AhR is substituted with VP16 transcriptional activation domain (AhRV gene). Using Agrobacterium with each plasmid introduced therein, a tobacco plant (Nicotiana tabacum cv. Sumsun N N) was transformed by a leaf disc method.
The plants which had been introduced with each plant expression plasmid were selected two times by antibiotic kanamycin. Each genomic DNA was extracted from re-differentiated individuals after kanamycin selection, and genomic PCR analysis was performed using primers specific for each of AhR or AhRV, Arnt and GUS.
The plant transformed with either pSKA2G or pSKAvAtG is designated as AhR-GUS or AhRV-GUS plants, respectively. Axillary buds were removed from all transformed plants. […] Then the soluble protein fractions were extracted from stem and leaf parts of the grown buds, and the GUS activities of the fractions were measured. The medium were added with 0.01% Tween 20 and an AhR-ligand (20-MC) or a solvent DMSO solution to a final concentration of 0.1%. Similarly, a axillary bud was cultured for 2 weeks on an MS medium in the presence of various concentrations (8 grades) of AhR-ligand 20 MC. The AhR-ligand dose dependent expression of the reporter was analyzed. In addition, similarly, a axillary bud was cultured for 2 weeks on an MS medium containing 25 μM 20-MC, and tissue-specific expression of a reporter in a plant was analyzed using a GUS staining method. That is, each tissue of a plant was impregnation-treated in a X-Gluc solution (0.1M sodium phosphate buffer, pH 7.0, 1.9 mM X-glucuronide, 0.5 mM K3Fe(CN)6, 0.5 mM K4Fe(CN)6, 0.3% (v/v) Triton X-100, 20% methanol) under reduced pressure, then incubated at 37° C. overnight, and 70% ethanol was added to stop the reaction. Thereafter, decoloration was performed in 70% ethanol, and the tissue was observed under an optical microscope or stereomicroscope.

Consider `Clc1cc2c(cc1Cl)Oc1cc(Cl)c(Cl)cc1O2` [TCDD, 2,3,7,8-TCDD], for which the TCDD concentration detectable in test [1] is 0.01 ppb.
Turning to `O=c1cc(-c2ccccc2)oc2ccc3ccccc3c12` [β-NF, β-naphthoflovone], the “LacZ activity on AhR-ligand treatment, in words” value in test [2] is given as “enhancement of the LacZ activity was recognized”. Besides, the “enhancement of the GUS activity in the presence of AhR-ligands” value in test [3] is given as “remarkable”.
Consider `Cc1ccc2cc3c(ccc4ccccc43)c3c2c1CC3` [20-MC, 20-methylcholanthrene], for which, in test [3] (2 weeks on MS medium containing 25 μM 20-MC, leaf and stem, FIG. 12 B), the “GUS staining of tissues (X-Gluc)” value is “remarkable expression of a GUS reporter gene”. The “20-MC concentration in a medium that can be detected by the transformed plant” value in test [3] (axillary bud cultured 2 weeks on MS medium, 8 grades of 20-MC) stood at 5 nM. For the same molecule, in test [3] (line 4 and line 21 of the AhRV-GUS plant, stronger than GUS under CaMV 35S-P, FIG. 9), the “GUS activity dependent on AhR-ligand treatment, line 4 and line 21 of AhRV-GUS plant” value is recorded as “very strong enhancement of the GUS activity”. Besides, in test [3], the “enhancement of the GUS activity in the presence of AhR-ligands” value was “remarkable”.
